Measured values as given in PubChem BioAssay AID248 (DTP/NCI, 2004).
Inconclusive results and toxic doses are left out. Cut-off read from the data, not from the text of the source: active = T/C of 150% or more; inactive = T/C below 125%.

System: L1210 leukemia ip in BDF1 mice, survival T/C
Experiment: NCI In Vivo Anticancer Drug Screen. Data for tumor model L1210 Leukemia (intraperitoneal) in B6D2F1 (BDF1) mice
Conditions: endpoint: mean survival time, higher = longer survival
In short: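 Mice bearing the transplanted tumor received compound or vehicle. Survival of the treated group was divided by that of the vehicle-treated control group to give the ratio.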

[1] = dose: 100.0 mg/kg/injection, schedule: Q04DX003 (ip), vehicle: saline with Tween-80
[2] = dose: 200.0 mg/kg/injection, schedule: Q04DX003 (ip), vehicle: saline with Tween-80
[3] = dose: 400.0 mg/kg/injection, schedule: Q04DX003 (ip), vehicle: saline with Tween-80
[4] = dose: 50.0 mg/kg/injection, schedule: Q01DX009 (ip), vehicle: saline
[5] = dose: 100.0 mg/kg/injection, schedule: Q01DX001 (ip), vehicle: saline
[6] = dose: 100.0 mg/kg/injection, schedule: Q01DX009 (ip), vehicle: saline
[7] = dose: 200.0 mg/kg/injection, schedule: Q01DX001 (ip), vehicle: saline
[8] = dose: 200.0 mg/kg/injection, schedule: Q01DX009 (ip), vehicle: saline
[9] = dose: 100.0 mg/kg/injection, schedule: Q01DX009 (ip), vehicle: saline with Tween-80
[10] = dose: 200.0 mg/kg/injection, schedule: Q01DX009 (ip), vehicle: saline with Tween-80
[11] = dose: 400.0 mg/kg/injection, schedule: Q01DX009 (ip), vehicle: saline with Tween-80
[12] = dose: 100.0 mg/kg/injection, schedule: Q04DX003 (ip), vehicle: Klucel (hydroxypropylcellulose) (HPC)
[13] = dose: 200.0 mg/kg/injection, schedule: Q04DX003 (ip), vehicle: Klucel (hydroxypropylcellulose) (HPC)

Measured: T/C

O=C1c2ccccc2C(=O)N1CNc1cccc(NCN2C(=O)c3ccccc3C2=O)c1
inactive: [1] 91 % of control | [2] 97 % of control | [3] 102 % of control

C=CCOC(=O)C(C)O (stereo not drawn)
inactive: [4] 98 % of control | [5] 105 % of control | [6] 98 % of control | [7] 105 % of control | [8] 98 % of control

CCC1(CCC#N)CCC(N)=CC1=O (stereo not drawn)
inactive: [9] 97 % of control | [10] 106 % of control | [11] 97 % of control

C=CCN(CC=C)c1ccccc1
inactive: dose: 100.0 mg/kg/injection, schedule: Q01DX009 (ip), vehicle: Klucel (hydroxypropylcellulose) (HPC) 93 % of control | [12] 108 % of control | dose: 200.0 mg/kg/injection, schedule: Q01DX009 (ip), vehicle: Klucel (hydroxypropylcellulose) (HPC) 107 % of control | [13] 101 % of control | dose: 400.0 mg/kg/injection, schedule: Q01DX009 (ip), vehicle: Klucel (hydroxypropylcellulose) (HPC) 112 % of control | dose: 400.0 mg/kg/injection, schedule: Q04DX003 (ip), vehicle: Klucel (hydroxypropylcellulose) (HPC) 101 % of control

CN1CCN(C(=O)Nc2ccc(N=Nc3ccccc3)cc2)CC1
inactive: [13] 87 % of control

C=CCc1ccc(OCCOCCNC2CC(C)CCC2C(C)C)c(OC)c1 (stereo not drawn)
inactive: [12] 92 % of control

CCCCCCCC/C=C\CCCCCCCC(=O)OCCCCCCCC
inactive: dose: 100.0 mg/kg/injection, schedule: Q01DX001 (ip), vehicle: Klucel (hydroxypropylcellulose) (HPC) 97 % of control | dose: 100.0 mg/kg/injection, schedule: Q01DX009 (ip), vehicle: saline sonified 102 % of control | dose: 200.0 mg/kg/injection, schedule: Q01DX001 (ip), vehicle: Klucel (hydroxypropylcellulose) (HPC) 98 % of control | dose: 200.0 mg/kg/injection, schedule: Q01DX009 (ip), vehicle: saline sonified 98 % of control | dose: 400.0 mg/kg/injection, schedule: Q01DX001 (ip), vehicle: Klucel (hydroxypropylcellulose) (HPC) 92 % of control | dose: 400.0 mg/kg/injection, schedule: Q01DX009 (ip), vehicle: saline sonified 105 % of control

Cc1ccc(Oc2ccc(-c3cc(=O)c4cc(S(=O)(=O)F)ccc4[nH]3)cc2)cc1
inactive: dose: 100.0 mg/kg/injection, schedule: Q04DX003 (ip), vehicle: gum acacia 96 % of control | dose: 200.0 mg/kg/injection, schedule: Q04DX003 (ip), vehicle: gum acacia 88 % of control | dose: 400.0 mg/kg/injection, schedule: Q04DX003 (ip), vehicle: gum acacia 86 % of control

CC(=O)c1ccc(N=Nc2c(N)nc(N)nc2N)cc1
inactive: [5] 94 % of control | [7] 94 % of control | dose: 400.0 mg/kg/injection, schedule: Q01DX001 (ip), vehicle: saline 94 % of control

CCN(CC)C(=O)Nc1cccc(OC(=O)NC(C)(C)C)c1
inactive: [1] 99 % of control | [2] 103 % of control | [3] 93 % of control

NCC(=O)NCCCC(=O)O
inactive: dose: 18.75 mg/kg/injection, schedule: Q01DX001 (ip), vehicle: saline 90 % of control | dose: 37.5 mg/kg/injection, schedule: Q01DX001 (ip), vehicle: saline 101 % of control | dose: 75.0 mg/kg/injection, schedule: Q01DX001 (ip), vehicle: saline 104 % of control

Cc1cc(N)c(C)c(CC#N)c1
inactive: [4] 97 % of control | [6] 118 % of control | [8] 90 % of control

COc1ccc(OC(=O)CCCl)cc1
inactive: dose: 50.0 mg/kg/injection, schedule: Q01DX009 (ip), vehicle: saline with Tween-80 98 % of control | dose: 50.0 mg/kg/injection, schedule: Q04DX003 (ip), vehicle: saline with Tween-80 104 % of control | [9] 104 % of control | [1] 95 % of control | [10] 105 % of control | [2] 95 % of control | [11] 121 % of control | [3] 104 % of control

CC(C)CN(CCCCO)CC(C)C
inactive: [9] 95 % of control | dose: 100.0 mg/kg/injection, schedule: Q04DX003 (ip), vehicle: saline 100 % of control | [10] 103 % of control | dose: 200.0 mg/kg/injection, schedule: Q04DX003 (ip), vehicle: saline 100 % of control | dose: 400.0 mg/kg/injection, schedule: Q04DX003 (ip), vehicle: saline 100 % of control
